One series relates to fibroblasts (L929). The experiment in a line: cytotoxicity test (MTT) with extract of the cured temporary crown material. The format is cell-based. To be noted: L929 co-cultured with material extract (0.2 g/ml) for 24 hours and 72 hours; plasticizer in crown material; FIG. 3. As to the method:
First, 2 grams (g) of the mixture of the powder reagent and the liquid reagent were taken to be cured and then immersed in 10 ml of MEM culture medium at a temperature of 37° C. for 24 hours. Afterwards, an extract of the mixture was taken, in which the extraction ratio was 0.2 g/ml.
Further, fibroblasts (L929) were seeded in the 96-well plates and incubated for 1 day.
Afterwards, the cell culture media were removed, and then a material extract containing 10% fetal bovine serum (FBS) after filtration and a culture medium without the material extract as the control were added, respectively, and then incubated for 24-72 hours. Subsequently, the culture media were removed again, and then phosphate buffered saline (PBS) washes were performed, followed by PBS removal. The serum-free culture medium was formulated as a reaction reagent of MTT ((3-(4,5-dimethylthiazol-2-yl)-2,5-diphenyltetrazolium bromide)), and the ratio of the culture medium to the MTT solution was 1 mg/ml. Each well plate was added with 50 μl of MTT reagent and then placed in the incubator. After 2 hours, the MTT reagent was removed, and 100 μl of antifreezing agent (DMSO) was added. The 96-well plate was shaken for 30 minutes using a rotary shaker. After the reaction was completed, the absorbance at a wavelength of 570 nm was measured by an ELISA reader. […]

Series [1] can be described thus: three-point bending test (flexural strength, toughness) of the temporary crown material. To be noted: for toughness (in words): FIG. 5. The class given is physicochemical. As to the method:
First, the temporary crown material was filled into a stainless steel mold (a length of 25 millimeters (mm), a width of 2 mm and a height of 2 mm). After the temporary crown was completely cured, the crown was immersed in ultrapure water and placed in an oven at 37° C. for 24 hours. […] The flexural strength was calculated by the following formula: […]
wherein F was the force (N) under the maximum load; b was the average width (mm) of the test piece; h was the average thickness (mm) of the test piece; and l was the pitch (mm) between the two lower fulcrums.
In addition, the toughness of the temporary crown is the integral area under the stress-strain curve, in which stress is put on Y-axis and strain is put on X-axis. The unit of the toughness is […]

Series [2] in a line: surface hardness test of temporary crowns (micro hardness tester). The class given is physicochemical. Conditions: plasticizer added to temporary crown; load 4.903 N for 10 seconds; FIG. 6. The procedure:
First, the temporary crown material was filled into a stainless steel mold (a diameter of 15 mm and a thickness of 1 mm). After the temporary crown was completely cured, the sample was immersed in ultrapure water and placed in an oven at 37° C. After 24 hours, the sample to be tested was taken out and placed in a micro hardness tester (HMV-2 series), and the load applied to the sample by the diamond indenter was 4.903 N for 10 seconds. Finally, the average length of the diagonal indentation on the surface of the sample was measured to calculate the surface hardness of the temporary crown. The calculation formula was: […]
wherein d is the length of the indentation, F is the load, and g is the gravity constant.

The mark [3] stands for this setting: plasticizer added to temporary crown.
[4] abbreviates: temporary crown with 2% plasticizer.
Setting [5] is: temporary crown with 5% plasticizer.
The mark [6] stands for this setting: temporary crown with 10% plasticizer.
The mark [7] stands for this setting: temporary crown with 15% plasticizer.

This is an account of results in patent US11147748B2, “Composition of temporary crown materials” (National Taipei University of Technology, priority 2019, dated 2021).

“Also recorded” adds a separate entry of the source. Where a name gives a salt, the structure may show the parent alone.

As for `CCCCOC(=O)CC(CC(=O)OCCCC)(OC(C)=O)C(=O)OCCCC` [ATBC, acetyl tributyl citrate], the “cytotoxicity / cell survival rate” value in the series on fibroblasts (L929) was “less than that of adding plasticizers DBP and TEC; also recorded: less toxicity to cells”. In series [1] (plasticizer added to temporary crown, FIG. 4), the “flexural strength (in words)” value was “can increase the flexural strength”. Besides, the “toughness (in words)” value in series [1] (setting [3]) is “can increase the toughness”. In series [1] (setting [4]), this compound had an Elongation at break of 7.94%, a Flexural modulus of 2463.34 MPa, a Maximum stress of 85.24 MPa and a Strain of 7.72%. In series [1] (setting [4]), this compound came in with a Toughness of 59.89 MPa. In series [1] (setting [5]), the Elongation at break stood at 8.24%, the Flexural modulus is listed as 2362.61 MPa, the Maximum stress amounted to 81.98 MPa and the Strain turned out to be 7.82%. This compound came in with a Toughness in series [1] (setting [5]) of 57.21 MPa. In addition, in series [1] (setting [6]), the Elongation at break is on record as 6.50%, the Flexural modulus stood at 2138.92 MPa, the Maximum stress is on record as 70.29 MPa and the Strain is 6.48%. The Toughness in series [1] (setting [6]) is 28.07 MPa. Besides, in series [1] (setting [7]), the Elongation at break turned out to be 5.70%, the Flexural modulus is listed as 1897.78 MPa, the Maximum stress is on record as 55.59 MPa and the Strain is 5.71%. In addition, in series [1] (setting [7]), the Toughness is given as 17.39 MPa.

For the compound `CCCCOC(=O)c1ccccc1C(=O)OCCCC` [DBP, dibutyl phthalate, reference compound], the “surface hardness (in words)” value in series [2] is “contributes to the increase of surface hardness”. In series [1] (setting [4]), this compound returned an Elongation at break of 10.86%, a Flexural modulus of 1215.08 MPa, a Maximum stress of 66.56 MPa and a Strain of 10.75%. Besides, in series [1] (setting [4]), the Toughness amounted to 28.74 MPa. In series [1] (setting [5]), the Elongation at break came out at 11.43%, the Flexural modulus turned out to be 1199.73 MPa, the Maximum stress was 62.75 MPa and the Strain is reported as 10.75%. Moreover, the Toughness in series [1] (setting [5]) came out at 31.14 MPa. In series [1] (setting [6]), this compound registered an Elongation at break of 9.56%, a Flexural modulus of 1083.70 MPa, a Maximum stress of 54.11 MPa and a Strain of 9.75%. Also, the Toughness in series [1] (setting [6]) was 18.94 MPa. In series [1] (setting [7]), the Elongation at break came out at 9.68%, the Flexural modulus was found to be 997.11 MPa, the Maximum stress amounted to 46.25 MPa and the Strain turned out to be 9.50%. The compound further returned a Toughness in series [1] (setting [7]) of 17.35 MPa.

`CCOC(=O)CC(O)(CC(=O)OCC)C(=O)OCC` [TEC, triethyl citrate]: the “cytotoxicity / cell survival rate” value in the series on fibroblasts (L929) was “not significantly improved”. Further, the “toughness (in words)” value in series [1] (setting [3]) is on record as “can increase the toughness”. Besides, in series [1] (setting [4]), the Elongation at break was found to be 10.43%, the Flexural modulus came out at 2173.29 MPa, the Maximum stress is listed as 80.70 MPa and the Strain is recorded as 8.94%. The compound also had a Toughness in series [1] (setting [4]) of 77.26 MPa. In series [1] (setting [5]), this compound had an Elongation at break of 13.14%, a Flexural modulus of 2308.16 MPa, a Maximum stress of 83.40 MPa and a Strain of 9.20%. Moreover, the Toughness in series [1] (setting [5]) is 115.80 MPa. For the same compound, in series [1] (setting [6]), the Elongation at break worked out at 7.10%, the Flexural modulus was 2029.32 MPa, the Maximum stress was determined as 69.93 MPa and the Strain is given as 7.09%. The same compound displayed a Toughness in series [1] (setting [6]) of 30.88 MPa. In addition, in series [1] (setting [7]), the Elongation at break is 5.34%, the Flexural modulus is given as 1790.09 MPa, the Maximum stress is 46.31 MPa and the Strain is reported as 5.36%. The compound further had a Toughness in series [1] (setting [7]) of 11.98 MPa.
